Results: US20130071328A1, “Propynoic Acid Carbamoyl Methyl-Amides and Pharmaceutical Compositions and Methods Based Thereon” (UNIVERSITY OF SOUTHERN CALIFORNIA, priority 2011, published 2013)

How the values were obtained:
[1] = test system: UMUC3 bladder cancer cell line; experiment: MTT cytotoxicity assay, UMUC3; format: cell-based; settings: Homo sapiens, 72 h exposure
Description: (§1) The human breast cancer cell line MDA-MB-435 and the colon cancer cell line HT29 were purchased from the American Type Cell Culture (Manassas, Va.). Colon cancer cell lines HCT116 p53^+/+ and HCT116 p53^−/− were kindly provided by Dr. Bert Vogelstein (Johns Hopkins Medical Institutions, Baltimore, Md.). The human ovarian carcinoma cell line (HEY), naturally resistant to cisplatin (CDDP), was kindly provided by Dr. Louis Dubeau (USC Norris Cancer Center). The bladder cancer cell lines were kindly provided by Dr. Richard Cote (USC Keck School of Medicine). Cells were maintained as monolayer cultures in the appropriate media: RPMI-1640 (HT29, HCT116 p53^+/+, HCT116 p53^−/−, and HEY cell lines) or DMEM (MDA-MB-435 and UMUC3 cell lines) supplemented with 10% fetal bovine serum (FBS) (HyClone, Road Logan, Utah) at 37° C. in a humidified atmosphere of 5% CO2. To remove the adherent cells from the flask for subculture and counting, cells were washed with PBS without calcium or magnesium, incubated with a small volume of 1×trypsin-EDTA solution (Sigma-Aldrich, St. Louis, Mo.) for 5 min, resuspended with fresh culture medium, and centrifuged at 1200 rpm for 5 min. All experiments were performed using cells in exponential growth phase. Cells were routinely checked for Mycoplasma contamination using PlasmaTest kit (InvivoGen, San Diego, Calif.).
(§2) Cytotoxicity was assessed by MTT assay as described previously. 43 In brief, cells were seeded in 96-well microtiter plates and allowed to attach overnight. Cells were subsequently treated with continuous exposure to corresponding drugs for 72 h. At the end of treatments, an MTT solution (at a final concentration of 0.5 mg/mL) was added to each well, and cells were incubated for 4 h at 37° C. After removal of the supernatant, DMSO was added, and the absorbance was read at 570 nm. All assays were done in triplicate. The IC50 was then determined for each drug from a plot of log(drug concentration) versus percentage of cells killed.

[2] = test system: MDA-MB-435 breast cancer cell line; experiment: MTT cytotoxicity assay, MDA-MB-435; format: cell-based, human; settings: Homo sapiens, MDA-MB-435, 72 h, 72 h exposure
Description: as §1, §2

[3] = test system: HT29 colon cancer cell line; experiment: MTT cytotoxicity assay, HT29; format: cell-based; settings: Homo sapiens, HT-29, 72 h exposure
Description: as §1, §2

[4] = test system: HCT116 p53^+/+ colon cancer cell line; experiment: MTT cytotoxicity assay, HCT116 p53+/+; format: cell-based; settings: Homo sapiens, HCT-116, 72 h exposure
Description: as §1, §2

[5] = test system: 5637 bladder cancer cell line; experiment: MTT cytotoxicity assay, 5637; format: cell-based, human; settings: Homo sapiens, 72 h exposure
Description: as §1, §2

[6] = test system: doxorubicin-resistant NCI/ADR-RES ovarian cancer cell line; experiment: Cytotoxicity assay, NCI/ADR-RES; format: cell-based; settings: Homo sapiens
Protocol: as §2

[7] = test system: HCT116 p53^−/− colon cancer cell line; experiment: MTT cytotoxicity assay, HCT116 p53-/-; format: cell-based; settings: Homo sapiens, HCT-116, 72 h exposure
Description: as §1, §2

[8] = test system: HEY ovarian cancer cell line; experiment: Cytotoxicity assay, HEY; format: cell-based; settings: Homo sapiens
Description: as §1, §2

[9] = test system: OVCAR8 ovarian cancer cell line; experiment: In vitro cytotoxicity, OVCAR8; format: cell-based; settings: Homo sapiens, OVCAR-8; Table 4, ovarian cancer panel
Protocol: as §2

[10] = test system: OVCAR3 ovarian cancer cell line; experiment: In vitro cytotoxicity, OVCAR3; format: cell-based; settings: Homo sapiens, OVCAR-3; Table 4, ovarian cancer panel
Protocol: as §2

Row | SMILES | IC50 [1] [µM] | IC50 [2] [µM] | IC50 [3] [µM] | IC50 [4] [µM] | IC50 [5] [µM] | IC50 ([6]; MTT, 72 h exposure (Table 2)) [µM] | IC50 [7] [µM] | IC50 ([8]; MTT, 72 h exposure (Table 2)) [µM] | IC50 [9] [µM] | IC50 ([6]; Table 4, ovarian cancer panel) [µM] | IC50 [10] [µM] | IC50 ([8]; Table 4, ovarian cancer panel) [µM]
1 | C#CC(=O)N(c1ccc(OC)c(OC)c1)C(C(=O)NC1CCCC1)c1cccs1 (stereo not shown) [Compound 3, N-[2-(Cyclopentylamino)-2-oxo-1-thien-2-ylethyl]-N-(3,4-dimethoxyphenyl)Propynamide] | > 20 | 2 ± 0.1 | 5.5 ± 4.2 | 7.7 ± 1.9 | 2 ± 0.7 | 0.9 ± 0.8 | 9.6 ± 4.9 | 3.4 ± 1.5 |  |  |  | 
2 | C#CC(=O)N(c1ccc(OC)cc1OC)C(C(=O)NC1CCCC1)c1cccs1 (stereo not shown) [Compound 5, N-[2-(Cyclopentylamino)-2-oxo-1-thien-2-ylethyl]-N-(2,4-dimethoxyphenyl)Propynamide] | > 20 | 1.7 ± 0.5 | 2.3 ± 0.3 | 6.9 ± 0.6 | 1.7 ± 0.8 | 0.4 | 7 ± 0.7 | 4.1 ± 3.4 |  |  |  | 
3 | C#CC(=O)N(c1cccc(OC)c1)C(C(=O)NC1CCCC1)c1cccs1 (stereo not shown) [Compound 6, N-[2-(Cyclopentylamino)-2-oxo-1-thien-2-ylethyl]-N-(3-methoxyphenyl)Propynamide] | 6.9 ± 1.2 |  | 2.3 ± 0.3 | 7.2 ± 0.2 | 0.3 | 0.3 | 5.6 ± 0.8 | 1.9 ± 0.7 |  |  |  | 
4 | C#CC(=O)N(c1cc(OC)ccc1OC)C(C(=O)NC1CCCC1)c1cccs1 (stereo not shown) [Compound 7, N-[2-(Cyclopentylamino)-2-oxo-1-thien-2-ylethyl]-N-(2,5-dimethoxyphenyl)Propynamide] | 5.7 ± 1.5 | 0.5 ± 0.3 | 1.6 ± 1 | 5.7 ± 0.6 | 0.3 | 0.3 | 4.7 ± 2.3 | 1.5 ± 1.1 |  |  |  | 
5 | C#CC(=O)N(c1ccc2c(c1)OCCO2)C(C(=O)NC1CCCC1)c1ccccc1 (stereo not shown) [Compound 8, N-[2-(Cyclopentylamino)-2-oxo-1-phenylethyl]-N-(2,3-dihydro-1,4-benzodioxin-6-yl)Propynamide] | > 20 | 1.8 ± 0.6 | 3.2 ± 1.2 | 17.3 ± 1.1 | 1.9 ± 0.6 | 0.3 | > 20 | 4.1 ± 3.4 |  |  |  | 
6 | C#CC(=O)N(Cc1ccco1)C(C(=O)NC1CCCC1)c1ccccc1F (stereo not shown) [Compound 10, N-[2-(Cyclopentylamino)-1-(2-fluorophenyl)-2-oxoethyl]-N-(2-furylmethyl)Propynamide] | > 20 | 1.7 ± 0.6 | > 10 | 10.5 | 2.9 ± 0.8 | 1.2 ± 0.4 | 13 ± 2.8 | 4.3 ± 3.9 |  |  |  | 
7 | C#CC(=O)N(c1cc(OC)cc(OC)c1)C(C(=O)NC1CCCC1)c1ccc(OC)cc1 (stereo not shown) [Compound 11, N-[2-(Cyclopentylamino)-1-(4-methoxyphenyl)-2-oxoethyl]-N-(3,5-dimethoxyphenyl)Propynamide] | > 20 | 2.4 ± 0.1 | 2.1 ± 0.4 | 15 | 1.9 ± 0.6 | 0.3 | > 20 | 2.3 ± 0.4 |  |  |  | 
8 | C#CC(=O)N(c1cccc(C(F)(F)F)c1)C(C(=O)NC1CCCC1)c1ccc(F)cc1 (stereo not shown) [Compound 12, N-[2-(Cyclopentylamino)-1-(4-fluorophenyl)-2-oxoethyl]-N-[3-(trifluoromethyl)phenyl]Propynamide] | 8 ± 1.4 | 5.2 ± 1.2 | 4.8 ± 3.2 | 7.5 ± 0.7 | 0.5 ± 0.3 | 0.4 | 6.9 ± 0.6 | 2.4 ± 0.2 |  |  |  | 
9 | C#CC(=O)N(c1cccc(C(F)(F)F)c1)C(C(=O)NC1CCCCC1)c1cccs1 (stereo not shown) [Compound 13, N-[2-(Cyclohexylamino)-2-oxo-1-thien-2-ylethyl]-N-[3-(trifluoromethyl)phenyl]Propynamide] | > 20 | 6.9 ± 0.8 | 6 ± 1.4 | 8.3 ± 1.1 | 1.6 ± 0.7 | 0.4 | 10.4 ± 0.2 | 5.2 ± 3.6 |  |  |  | 
10 | C#CC(=O)N(c1ccc2ccccc2c1)C(C(=O)NC1CCCC1)c1ccccc1 (stereo not shown) [Compound 14, N-[2-(Cyclopentylamino)-2-oxo-1-phenylethyl]-N-(2-naphthyl)Propynamide] | > 20 | 7.3 | 4.9 ± 3.4 | 6.8 ± 1.8 | 0.5 ± 0.3 | 0.3 | 7.4 ± 0.8 | 1.7 ± 1.1 |  |  |  | 
11 | C#CC(=O)N(Cc1ccc2c(c1)OCO2)C(C(=O)NCc1ccccc1)c1ccccc1F (stereo not shown) [Compound 15, N-(1,3-Benzodioxol-5-ylmethyl)-N-[2-(benzylamino)-1-(2-fluorophenyl)-2-oxoethyl]Propynamide] | > 20 | > 10 | > 10 | > 10 | 2.8 ± 1.1 | 1.3 ± 1 | > 20 | > 10 |  |  |  | 
12 | C#CC(=O)N(c1cccc(C(F)(F)F)c1)C(C(=O)NCc1ccccc1)c1cccs1 (stereo not shown) [Compound 16, N-[2-(Benzylamino)-2-oxo-1-thien-2-ylethyl]-N-[3-(trifluoromethyl)-phenyl]Propynamide] | > 20 | 4.2 ± 3 | 7.3 ± 0.3 | 9 ± 1.4 | 1.2 ± 1.1 | 0.7 ± 0.6 | 16.1 ± 5.6 | 7.1 ± 2.6 |  |  |  | 
13 | C#CC(=O)N(Cc1ccccc1Cl)C(C(=O)NC1CCCC1)c1ccccc1 (stereo not shown) [Compound 17, N-(2-Chlorobenzyl)-N-[2-(cyclopentylamino)-2-oxo-1-phenylethyl]Propynamide] | > 20 | 8.2 ± 0.2 | 5.4 ± 3 | 7.7 ± 0.5 | 1.8 ± 0.1 | 2.2 ± 0.2 | 7.3 ± 1.4 | 5.8 ± 1.3 |  |  |  | 
14 | C#CC(=O)N(c1ccccc1F)C(C(=O)NC1CCCCC1)c1ccccc1F (stereo not shown) [Compound 19, N-[2-(Cyclohexylamino)-1-(2-fluorophenyl)-2-oxoethyl]-N-(2-fluorophenyl)Propynamide] | > 20 | 6.5 ± 2.1 | 7.7 ± 0.5 | 11.9 ± 0.1 | 2.1 | 0.4 ± 0.1 | 10.1 ± 2.9 | 5.6 ± 2.1 |  |  |  | 
15 | C#CC(=O)N(c1ccc(-n2cnnn2)c(C)c1)C(C(=O)NCC(=O)OCC)c1ccccc1F (stereo not shown) [Compound 20] |  |  |  |  |  |  |  |  | 0.2 | 1.3 |  | 
16 | C#CC(=O)N(c1ccc(-n2cnnn2)c(C)c1)C(C(=O)NC1CCCC1)c1c(F)c(F)c(F)c(F)c1F (stereo not shown) [Compound 24] |  |  |  |  |  |  |  |  | 5 | 0.45 | 0.6 | 
17 | C#CC(=O)N(C)C(C(=O)NC1CCCC1)c1cccs1 (stereo not shown) [Compound 25] |  |  |  |  |  |  |  |  | 2.2 | 0.32 | 0.53 | 
18 | C#CC(=O)N(c1cccc(O)c1)C(C(=O)NC1CCCC1)c1cccs1 (stereo not shown) [Compound 26] |  |  |  |  |  |  |  |  | 2.2 | 0.32 | 1.5 | 
19 | C#CC(=O)N(c1cc(OC)c(OC)c(OC)c1)C(C(=O)NC1CCCC1)c1cccs1 (stereo not shown) [Compound 27] |  |  |  |  |  |  |  |  | 2.2 | 0.33 | 0.42 | 
20 | C#CC(=O)N(CC(=O)NC1CCCC1)c1ccc(OC)cc1OC [Compound 28] |  |  |  |  |  |  |  |  | 0.52 | 0.02 | 0.23 | 
21 | C#CC(=O)N(CC(N)=O)c1ccc(OC)cc1OC [Compound 29] |  |  |  |  |  |  |  |  | 0.5 ± 0.3 |  |  | 
22 | C#CC(=O)N(CC(=O)NC1CCCC1)c1ccc(-n2cnnn2)c(C)c1 [Compound 30] |  |  |  |  |  |  |  |  | 10 | 1.8 | 3 | 
23 | C#CC(=O)N(c1ccc(-n2cnnn2)c(C)c1)C(C(=O)NC1CCCC1)c1cccnc1 (stereo not shown) [Compound 31] |  |  |  |  |  |  |  |  | 1.5 | 2.5 | 2.5 | 
24 | C#CC(=O)N(c1ccc(O)cc1OC)C(C(=O)NCC(=O)OCC)c1cccs1 (stereo not shown) [Compound 40] |  |  |  |  |  |  |  |  | 10.4 ± 1.6 | 12.8 ± 3.8 |  | 
25 | C#CC(=O)N(c1ccc(OC)cc1OC)C(C(=O)NCC(=O)OCC)c1ccccc1 (stereo not shown) [Compound 41] |  |  |  |  |  |  |  |  | 0.4 ± 0.2 |  |  | 
26 | C#CC(=O)N(Cc1ccc(OC)cc1OC)C(C(=O)NCC(=O)OCC)c1ccccc1 (stereo not shown) [Compound 42] |  |  |  |  |  |  |  |  | 3.4 ± 0.4 |  |  | 
27 | C#CC(=O)N(c1ccc(OC)cc1OC)C(C(=O)NCC(=O)NCCN1CCOCC1)c1cccs1 (stereo not shown) [Compound 45] |  |  |  |  |  |  |  |  | 5 | > 10 |  | 0.32
